These results are taken from a melting point compilation (Tetko et al.).

In turn, `Cn1ccnc1C(=O)c1ccncc1` displayed a melting point of 138 to 140 °C.

For the molecule `NCc1ccc(Oc2ccc(F)cc2)nc1`, the melting point was in the range of 51 to 53 °C.

With `Nc1ccc(Oc2cccc3cccnc23)cc1`, the melting point lay in the range of 203 to 205 °C. `CC(C)S(=O)(=O)Cc1ccc(N)cc1` yielded a melting point of 134 to 136 °C. For `N#Cc1cccc(OCCCCC(=O)O)c1` the value was 78 to 80 °C.

Regarding `COC(=O)c1ccc(Sc2ccc(Cl)cn2)c(N)c1`, the melting point fell in the range of 121 to 123 °C.

`CCOC(=O)C(N)=NO` yielded a melting point of 94 to 96 °C. Take `CC(N)c1ccc(S(N)(=O)=O)cc1` (configuration not stated): the melting point was in the range of 148 to 150 °C. `Cn1ccc(C(=O)N2CCCC(C(=O)O)C2)cc1=O` (configuration not stated) had a melting point of 208 to 210 °C. Take `NCCc1c[nH]c2cc(Cl)ccc12`: the melting point is 104 to 106 °C. Turning to `CSc1ccc(S(=O)(=O)Cl)cc1`, the melting point lay within 46 to 48 °C. Molecule `CC(C)(C(=O)O)C(O)c1ccc(OCc2ccccc2)cc1` (configuration not stated) had a melting point of 167 to 169 °C. Under `O=C(O)c1cccc(OCc2cn3ccccc3n2)c1` stands 197 to 199 °C; under `O=C(Nc1cccc(O)c1)c1ccsc1`, 165 to 167 °C. `O=c1[nH]nnn1-c1ccccc1` gave a melting point of 188 to 189 °C.

`NC(=S)NC1CCOCC1` registered a melting point of 228 to 230 °C. Consider `NC(=S)Cn1nc2ccccn2c1=O`, for which the melting point fell in the range of 204 to 206 °C. For `Cn1cc(CNc2ccccc2C(F)(F)F)cn1`, the melting point was 53 to 55 °C.

In the case of `CCOc1ccc(S(=O)(=O)N2CCCCC2)cc1N`, the melting point fell in the range of 134 to 136 °C.

With `Cc1ccc(S(=O)(=O)N2CCC(N)CC2)cc1`, the melting point is 105 to 109 °C. Molecule `CC(=O)c1ccc(OCc2nccn2C)cc1` had a melting point of 106 to 108 °C.

Turning to `COc1ccc(C)cc1-n1ccc(C(=O)O)n1`, the melting point lay within 158 to 160 °C.

Consider `O=C(O)c1ccc(Cl)c(S(=O)(=O)N2CCc3ccccc32)c1`, for which the melting point is 195 to 197 °C. `NCc1ccc(N2CCOCC2)c(F)c1` came in with a melting point of 36 to 38 °C. For `CON=C(C(=O)N[C@@H]1C(=O)N2C(C(=O)O)=C(CSc3nnnn3C)CS[C@H]12)c1csc(N)n1`, the melting point was in the range of 159 to 161 °C. `COc1cc(Br)c(S(=O)(=O)Cl)cc1C(=O)O` showed a melting point of 196 to 198 °C. For `CC(C)c1cccc(OCC(=O)O)c1` the value was 65 to 67 °C. Molecule `CN(C)Cc1ccc(C(N)=O)cc1N` displayed a melting point of 156 to 158 °C.

Regarding `O=C1NC(=O)c2cnccc21`, the melting point lay within 233 to 235 °C.

Turning to `O=C(O)CCC(NC(=O)Cc1ccc2ccccc2c1)C(=O)O` (configuration not stated), the melting point was 173 to 175 °C.

The molecule `Cc1ccc(C2(C)CC(=O)NC2=O)cc1` (configuration not stated) returned a melting point of 69 to 71 °C. The molecule `CN(C(=O)OC(C)(C)C)c1ccc(C(=N)N)cc1` yielded a melting point of 142 to 144 °C. In turn, `CCCn1c(N)nc2ccccc21` returned a melting point of 114 to 116 °C. Take `O=C(O)CCc1ccc2c(c1)OCCO2`: the melting point fell in the range of 64 to 66 °C.

The molecule `CN(C)C(=O)C1CCC(C(=O)O)CC1` (configuration not stated) registered a melting point of 169 to 171 °C. For `CCOc1cc2c(cc1OCC)CNCC2` the value was 108 to 110 °C; for `Nc1nc(-c2ccccc2F)cs1`, 102 to 104 °C. As to `CC1(c2ccc(S(N)(=O)=O)cc2)NC(=O)NC1=O` (configuration not stated), the melting point lay within 249 to 251 °C.

In turn, `Cc1ccc(-n2nc(C(=O)O)cc2C)cc1` registered a melting point of 149 to 151 °C.

For the molecule `CSc1nc2[nH]cnc(=O)c2s1`, the melting point was 269 to 271 °C.

`CCCCNC(=O)Nc1cccc2c1CCCN2` registered a melting point of 173 to 175 °C. Under `O=C(O)C(=O)NNc1ccc(Cl)cc1Cl` stands 169 to 171 °C; under `Nc1cc(N2CCCS2(=O)=O)ccc1F`, 102 to 104 °C. `CC(C)(C)OC(=O)Nc1ccncc1C=O` displayed a melting point of 62 to 64 °C. Regarding `CCC(C)(C)c1ccc(OCCCC(=O)O)c(C(C)(C)CC)c1`, the melting point lay within 99 to 101 °C. `CC(=O)N1CCN(C(=O)CCC(=O)O)CC1` yielded a melting point of 110 to 116 °C. `CCn1ncc(C#N)c1N` gave a melting point of 159 to 161 °C.

Take `Cc1nn(-c2ccccc2)c(Oc2ccccc2)c1C=O`: the melting point was 92 to 94 °C. For `COC(=O)c1cc([N+](=O)[O-])cnc1C`, the melting point fell in the range of 58 to 60 °C. `COc1ccc(C(C)=O)cc1Br` registered a melting point of 82 to 84 °C. In turn, `NCCCNc1ccc(C(F)(F)F)cn1` yielded a melting point of 48 to 50 °C. Under `CCOc1ccccc1NC1=NCCS1` stands 55 to 57 °C.

In turn, `CCC1(C(=O)O)CCOCC1` yielded a melting point of 83 to 85 °C. For `NS(=O)(=O)c1c(Cl)cccc1C(F)(F)F` the value was 155 to 157 °C; for `O=C1NC(=O)C(Cc2ccccc2)(Cc2ccccc2)N1`, 318 to 320 °C; for `O=C(CCl)NCc1ccc(F)cc1`, 92 to 95 °C. For `NC(=O)CCC1CCCCC1`, the melting point is 116 to 118 °C. In turn, `N#CC1CNCCN1Cc1ccccc1` (configuration not stated) returned a melting point of 98 to 100 °C.

`O=C1COc2cccc(F)c2N1` came in with a melting point of 172 to 174 °C. For the molecule `CC(O)CNc1nc2ccccc2[nH]1` (configuration not stated), the melting point was in the range of 186 to 188 °C. `N#Cc1ccc(NC(N)=O)cc1` returned a melting point of 234 to 236 °C. Regarding `OC(c1ccccc1)c1nc2cc(Cl)ccc2[nH]1` (configuration not stated), the melting point was in the range of 184 to 186 °C. Molecule `CN1C(=O)C=C(Br)C1=O` registered a melting point of 84 to 86 °C.

In turn, `O=C1C=CC(=O)N1CCc1ccc(F)cc1` returned a melting point of 79 to 81 °C. For `CC(C)Oc1ccc(NS(=O)(=O)CC(=O)O)cc1`, the melting point lay within 116 to 118 °C. With `NC(CSCc1cccc2cccnc12)C(=O)O` (configuration not stated), the melting point was 171 to 173 °C. The molecule `Cn1cnc(-c2ccccc2)c1N` had a melting point of 159 to 161 °C.

`Cc1ccccc1C(N)CC(=O)O` (configuration not stated) yielded a melting point of 225 to 227 °C.

As to `Fc1c(Cl)ccc2c(Cl)ccnc12`, the melting point was in the range of 129 to 131 °C. The molecule `O=C(O)CNC(=O)/C=C/c1ccco1` showed a melting point of 218 to 221 °C. Molecule `O=S(=O)(Cl)/C=C/c1ccccc1` returned a melting point of 80 to 88 °C.

The molecule `CS(=O)c1ccc(N)cc1F` (configuration not stated) yielded a melting point of 109 to 111 °C.

Take `CC1CN(S(=O)(=O)c2ccc(NC(=O)CCl)cc2)CC(C)O1` (configuration not stated): the melting point lay in the range of 110 to 112 °C.

Consider `Cc1cccn2c(=O)c(C(=O)O)cnc12`, for which the melting point fell in the range of 205 to 207 °C. Take `Cc1nn(-c2ccccc2)c2ncc(C(=O)O)cc12`: the melting point was 278 to 280 °C. As for `Nc1nc2c(s1)COc1ccccc1-2`, the melting point fell in the range of 190 to 192 °C. In turn, `Cc1cccc([N+](=O)[O-])c1C(N)=O` returned a melting point of 158 to 160 °C. In turn, `CC(Cl)c1nnnn1-c1ccccc1` (configuration not stated) yielded a melting point of 95 to 97 °C.

In turn, `CC(=O)Nc1cccs1` had a melting point of 146 to 148 °C. For the molecule `Nc1cc(-c2cccnc2)no1`, the melting point is 174 to 176 °C. The molecule `O=C1NC(=O)C(c2cccc(Br)c2)N1` (configuration not stated) had a melting point of 185 to 187 °C. `Cc1ccc(CC(=O)NO)cc1`: the melting point lay in the range of 155 to 157 °C. With `CNc1ccc(C(=O)N2CCOCC2)cc1C`, the melting point fell in the range of 107 to 109 °C. In the case of `O=C(O)c1ccc(F)c(S(=O)(=O)N2CCCCC2)c1`, the melting point was in the range of 203 to 205 °C. Regarding `CC(=O)Cn1cc(Br)cn1`, the melting point is 62 to 64 °C. Regarding `CC(C)Cn1cnc(S(N)(=O)=O)c1`, the melting point lay within 144 to 146 °C.

Molecule `NC1(C(=O)NCC2CC2)CCCC1` gave a melting point of 64 to 66 °C.

By melting point is commonly meant the temperature of the solid-liquid transition.
